Experimental data published in US20230172204A1 (BASF SE, priority 2020, published 2023).

Columns and labels:
[1] = test system: Phakopsora pachyrhizi (F129L); test: Protective control of soybean rust on soybeans (PHAKPA P2); type: in vivo; conditions: soybean rust F129L; for % PHAKPA (F129L) Disease level P2 at 4 ppm: protective P2, 4 ppm; for % PHAKPA (F129L) Disease level P2 at 16 ppm: protective P2, 16 ppm
[2] = test system: Phakopsora pachyrhizi (F129L); test: Protective control of soybean rust on soybeans (PHAKPA P6); type: in vivo; conditions: soybean rust F129L; for % PHAKPA (F129L) Disease level P6 at 4 ppm: protective P6, 4 ppm; for % PHAKPA (F129L) Disease level P6 at 16 ppm: protective P6, 16 ppm

Structure (SMILES)	% PHAKPA (F129L) Disease level P2 at 4 ppm [1]	% PHAKPA (F129L) Disease level P2 at 16 ppm [1]	% PHAKPA (F129L) Disease level P6 at 4 ppm [2]	% PHAKPA (F129L) Disease level P6 at 16 ppm [2]
CNC(=O)/C(=N/OC)c1cccc(C)c1CO/N=C(\C)c1cccc(OC(F)F)c1 [compound 81]	6%	0%	2%	0%
CNC(=O)/C(=N/OC)c1cccc(C)c1CO/N=C(\C)c1cccc(F)c1 [compound 85]	1%	0%	0%	0%
CO/N=C(/C(=O)OC)c1cccc(C)c1CO/N=C(\C)c1cc(F)cc(F)c1 [compound 87]	8%	0%	7%	0%
CNC(=O)/C(=N/OC)c1cccc(C)c1CO/N=C(\C(C)=O)c1cccc(C(F)(F)F)c1 [compound 93]	83%	32%	43%	37%
CO/N=C(/C(=O)OC)c1cccc(C)c1CO/N=C(\C)c1cc(C)cc(C)c1 [compound 94]	22%	5%	35%	2%
CO/N=C(/C(=O)OC)c1cccc(C)c1CO/N=C(\C)c1cccc(C(C)C)c1 [compound 95]	11%	0%	33%	4%
CO/N=C(/C(=O)OC)c1cccc(C)c1CO/N=C(\C)c1cccc(C(C)(C)C)c1 [compound 96]	6%	1%	3%	0%
CO/N=C(/C(=O)OC)c1cccc(C)c1CO/N=C(\C)c1cccc(-c2ccccc2)c1 [compound 97]	4%	1%	1%	0%
CNC(=O)/C(=N/OC)c1cccc(C)c1CO/N=C(\C)c1cccc(-c2ccccc2)c1 [compound 98]	3%	0%	1%	0%
CNC(=O)/C(=N/OC)c1cccc(C)c1CO/N=C(\C)c1cc(C)cc(C)c1 [compound 99]	43%	12%	87%	33%
CNC(=O)/C(=N/OC)c1cccc(C)c1CO/N=C(\C)c1cccc(C(C)(C)C)c1 [compound 100]	18%	0%	25%	4%
CO/N=C(/C(=O)OC)c1cccc(C)c1CO/N=C(\C)c1cc(C)cc(Cl)c1 [compound 101]	70%	37%	60%	17%
CO/N=C(/C(=O)OC)c1cccc(C)c1CO/N=C(\C)c1ccc(Cl)c(C)c1 [compound 102]	60%	11%	90%	43%
CO/N=C(/C(=O)OC)c1cccc(C)c1CO/N=C(\C)c1ccc(F)cc1 [compound 103]	40%	3%	35%	4%
CNC(=O)/C(=N/OC)c1cccc(C)c1CO/N=C(\C)c1cccc(C(C)C)c1 [compound 105]	18%	1%	39%	13%
CNC(=O)/C(=N/OC)c1cccc(C)c1CO/N=C(\C)c1cc(C)cc(Cl)c1 [compound 106]	5%	1%	32%	9%
CNC(=O)/C(=N/OC)c1cccc(C)c1CO/N=C(\C)c1ccc(Cl)c(C)c1 [compound 107]	1%	0%	15%	1%
CNC(=O)/C(=N/OC)c1cccc(C)c1CO/N=C(\C)c1ccc(F)cc1 [compound 108]	1%	0%	1%	0%
CNC(=O)/C(=N/OC)c1cccc(C)c1CO/N=C(\C)c1ccc(C)c(Cl)c1 [compound 109]	8%	1%	12%	0%

Structure (SMILES)	% PHAKPA (F129L) Disease level P2 at 4 ppm [1]	% PHAKPA (F129L) Disease level P2 at 16 ppm [1]	% PHAKPA (F129L) Disease level P6 at 4 ppm [2]	% PHAKPA (F129L) Disease level P6 at 16 ppm [2]
CO/N=C(/C(=O)OC)c1cccc(C)c1CO/N=C(\C)c1cc(Cl)cc(Cl)c1F [compound 110]	20%	3%	30%	1%
CO/N=C(/C(=O)OC)c1cccc(C)c1CO/N=C(\C)c1ccc(-c2ccccc2)cc1 [compound 111]	28%	8%	46%	10%
CNC(=O)/C(=N/OC)c1cccc(C)c1CO/N=C(\C)c1cccc(C#N)c1 [compound 112]	13%	3%	30%	9%
CO/N=C(/C(=O)OC)c1cccc(C)c1CO/N=C(\C)c1ccc(Br)cc1 [compound 114]	38%	5%	52%	15%
CO/N=C(/C(=O)OC)c1cccc(C)c1CO/N=C(\C)c1ccccc1C [compound 115]	83%	63%	92%	75%
CO/N=C(/C(=O)OC)c1cccc(C)c1CO/N=C(\C)c1ccccc1Cl [compound 116]	85%	57%	85%	67%
CO/N=C(/C(=O)OC)c1cccc(C)c1CO/N=C(\C)c1cc(Cl)ccc1Cl [compound 117]	85%	10%	88%	12%
CO/N=C(/C(=O)OC)c1cccc(C)c1CO/N=C(\C)c1cc(F)ccc1F [compound 118]	10%	0%	32%	0%
CO/N=C(/C(=O)OC)c1cccc(C)c1CO/N=C(\C)c1ccccc1Br [compound 119]	93%	63%	92%	63%
CO/N=C(/C(=O)OC)c1cccc(C)c1CO/N=C(\C)c1ccccc1-c1ccccc1 [compound 121]	100%	98%	98%	92%
C#Cc1ccccc1/C(C)=N/OCc1c(C)cccc1/C(=N\OC)C(=O)OC [compound 122]	100%	73%	93%	90%
CO/N=C(/C(=O)OC)c1cccc(C)c1CO/N=C(\C)c1ccccc1OC [compound 123]	100%	82%	90%	78%
CNC(=O)/C(=N/OC)c1cccc(C)c1CO/N=C(\C)c1ccccc1-c1ccccc1 [compound 124]	98%	87%	92%	75%
C#Cc1ccccc1/C(C)=N/OCc1c(C)cccc1/C(=N\OC)C(=O)NC [compound 125]	72%	9%	90%	44%
CNC(=O)/C(=N/OC)c1cccc(C)c1CO/N=C(\C)c1ccccc1C [compound 127]	90%	44%	93%	62%
CNC(=O)/C(=N/OC)c1cccc(C)c1CO/N=C(\C)c1ccccc1Cl [compound 128]	32%	2%	77%	2%
CO/N=C(/C(=O)OC)c1cccc(C)c1CO/N=C(\C)c1ccc(F)c(F)c1 [compound 129]	28%	1%	24%	2%
CNC(=O)/C(=N/OC)c1cccc(C)c1CO/N=C(\C)c1ccc(F)c(F)c1 [compound 132]	1%	0%	6%	0%
